Laboratory results as given in paper PMC5780470, “Copper(I)-binding properties of de-coppering drugs for the treatment of Wilson disease. α-Lipoic acid as a potential anti-copper agent” (Scientific Reports, 2018).

Molecular target: MT2A (MT2, Cu10MT, Cu10MT2) (Oryctolagus cuniculus, UniProt P18055)
Experiment: ESI-MS demetallation of Cu10MT, Hill fit
Assay type: binding
Conditions: C50 for Cu(I) extraction from 3 uM Cu10MT, not a protein affinity; 10 mM DTT, 20 mM ammonium acetate, pH 7.3, 25 °C; all CuMT-TTM complexes counted; no ternary complexes stated; read-out: C50 (mM) for Cu1Cox17
Excerpt: ESI-MS demetallation of Cu10MT, Hill fit on MT2A (MT2, Cu10MT, Cu10MT2)

Sequence of MT2A (MT2, Cu10MT, Cu10MT2) (P18055 whole entry): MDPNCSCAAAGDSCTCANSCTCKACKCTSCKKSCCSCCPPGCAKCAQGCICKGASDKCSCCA

## CCN(CC)C(=S)S [DETC, diethyl dithiocarbamate]
  IC50: 0.772 ± 0.087 mM
